Data as given in patent US20170190671A1, “BIS(ARYL)CATECHOL DERIVATIVES AS HERBICIDES” (E I DU PONT DE NEMOURS AND COMPANY, priority 2014, published 2017).

How the values were obtained:
Assay type in all cases: in vivo
[1] = system: waterhemp (common waterhemp, Amaranthus rudis); assay: Test C postemergence; conditions: Amaranthus tuberculatus, post-emergence, Postemergence, scale 0 to 100, read-out: Plant response rating, Waterhemp
Source text: (§1) Seeds of plant species selected from blackgrass (Alopecurus myosuroides), Italian ryegrass (Lolium multiflorum), winter wheat (Triticum aestivum), galium (catchweed bedstraw, Galium aparine), corn (Zea mays), large (Lg) crabgrass (Digitaria sanguinalis), giant foxtail (Setaria faberii), johnsongrass (Sorghum halepense), lambsquarters (Chenopodium album), morningglory (Ipomoea coccinea), yellow nutsedge (Cyperus esculentus), pigweed (Amaranthus retroflexus), ragweed (common ragweed, Ambrosia elatior), soybean (Glycine max), barnyardgrass (Echinochloa crus-galli), oilseed rape (Brassica napus), waterhemp (common waterhemp, Amaranthus rudis), and velvetleaf (Abutilon theophrasti) were planted into a blend of loam soil and sand and treated preemergence with test chemicals formulated in a non-phytotoxic solvent mixture which included a surfactant.
(§2) At the same time, plants selected from these crop and weed species and also chickweed (common chickweed, Stellaria media), kochia (Kochia scoparia), and wild oat (Avena fatua), were planted in pots containing Redi-Earth® planting medium (Scotts Company, 14111 Scottslawn Road, Marysville, Ohio 43041) comprising spaghnum peat moss, vermiculite, wetting agent and starter nutrients and treated with postemergence applications of test chemicals formulated in the same manner. Plants ranged in height from 2 to 18 cm (1- to 4-leaf stage) for postemergence treatments. Treated plants and controls were maintained in a greenhouse for 13 to 15 days, after which time all species were compared to controls and visually evaluated. Plant response ratings, summarized in Table C, are based on a scale of 0 to 100 where 0 is no effect and 100 is complete control. A dash (-) response means no test result.

wild oat (Avena fatua) = assay: Test C postemergence; conditions: Avena fatua, post-emergence, Postemergence, scale 0 to 100, read-out: Plant response rating, Oat, Wild
Source text: as §1, §2

kochia (Kochia scoparia) [2] = assay: Test C postemergence; conditions: Bassia scoparia, post-emergence, Postemergence, scale 0 to 100, read-out: Plant response rating, Kochia
Source text: as §1, §2

[3] = system: ragweed (common ragweed, Ambrosia elatior); assay: Test A preemergence; conditions: Ambrosia artemisiifolia, pre-emergence, 240 h, 0 to 100 scale, read-out: Plant response rating, Ragweed
Method in brief: (§3)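 Pre- and postemergence greenhouse screen. Soil: loam + sand. Spray carrier: solvent mixture, non-phytotoxic, with surfactant. Post timing at 1–2 leaves, height 2–10 cm. Readout: visual injury on a 0–100 scale roughly 10 days after application, untreated plants as reference.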

[4] = system: Italian ryegrass (Lolium multiflorum); assay: Test A preemergence; conditions: Lolium multiflorum, pre-emergence, 240 h, 0 to 100 scale, read-out: Plant response rating, Ryegrass, Italian
Method in brief: as §3

[5] = system: pigweed (Amaranthus retroflexus); assay: Test A preemergence; conditions: Amaranthus retroflexus, pre-emergence, 240 h, 0 to 100 scale, read-out: Plant response rating, Pigweed
Method in brief: as §3

kochia (Kochia scoparia) [6] = assay: Test A preemergence; conditions: Bassia scoparia, pre-emergence, 240 h, 0 to 100 scale, read-out: Plant response rating, Kochia
Method in brief: as §3

[7] = system: giant foxtail (Setaria faberii); assay: Test A preemergence; conditions: Setaria faberi, pre-emergence, 240 h, 0 to 100 scale, read-out: Plant response rating, Foxtail, Giant
Method in brief: as §3

[8] = system: barnyardgrass (Echinochloa crus-galli); assay: Test A preemergence; conditions: Echinochloa crus-galli, pre-emergence, 240 h, 0 to 100 scale, read-out: Plant response rating, Barnyardgrass
Method in brief: as §3

[9] = system: blackgrass (Alopecurus myosuroides); assay: Test A postemergence; conditions: Alopecurus myosuroides, post-emergence, 240 h, 0 to 100 scale, read-out: Plant response rating, Blackgrass
Method in brief: as §3

[10] = system: ragweed (common ragweed, Ambrosia elatior); assay: Test A postemergence; conditions: Ambrosia artemisiifolia, post-emergence, 240 h, 0 to 100 scale, read-out: Plant response rating, Ragweed
Method in brief: as §3

[11] = system: galium (catchweed bedstraw, Galium aparine); assay: Test A postemergence; conditions: Galium, post-emergence, 240 h, 0 to 100 scale, read-out: Plant response rating, Galium
Method in brief: as §3

corn (Zea mays) = assay: Test A postemergence; conditions: Zea mays, post-emergence, 240 h, 0 to 100 scale
Method in brief: as §3

[12] = system: Italian ryegrass (Lolium multiflorum); assay: Test A postemergence; conditions: Lolium multiflorum, post-emergence, 240 h, 0 to 100 scale, read-out: Plant response rating, Ryegrass, Italian
Method in brief: as §3

[13] = system: pigweed (Amaranthus retroflexus); assay: Test A postemergence; conditions: Amaranthus retroflexus, post-emergence, 240 h, 0 to 100 scale, read-out: Plant response rating, Pigweed
Method in brief: as §3

kochia (Kochia scoparia) [14] = assay: Test A postemergence; conditions: Bassia scoparia, post-emergence, 240 h, 0 to 100 scale, read-out: Plant response rating, Kochia
Method in brief: as §3

[15] = system: wheat (Triticum aestivum); assay: Test A postemergence; conditions: Triticum aestivum, post-emergence, 240 h, 0 to 100 scale, read-out: Plant response rating, Wheat
Method in brief: as §3

[16] = system: giant foxtail (Setaria faberii); assay: Test A postemergence; conditions: Setaria faberi, post-emergence, 240 h, 0 to 100 scale, read-out: Plant response rating, Foxtail, Giant
Method in brief: as §3

[17] = system: barnyardgrass (Echinochloa crus-galli); assay: Test A postemergence; conditions: Echinochloa crus-galli, post-emergence, 240 h, 0 to 100 scale, read-out: Plant response rating, Barnyardgrass
Method in brief: as §3

rice (Oryza sativa) = assay: Test B flooded paddy; conditions: Oryza sativa, 336 h; 250 g ai/ha, Flood, 13 to 15 days, scale 0 (no effect) to 100 (complete control); read-out: Plant response rating, Rice
Method in brief: (§4)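 Compound was added to standing water 3 cm above soil, flood maintained, and plants held in a greenhouse before visual scoring against controls at 13 to 15 days.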

[18] = system: sedge, umbrella (small-flower umbrella sedge, Cyperus difformis); assay: Test B flooded paddy; conditions: Cyperus difformis, 336 h; 250 g ai/ha, Flood, 13 to 15 days, scale 0 (no effect) to 100 (complete control); read-out: Plant response rating, Sedge, Umbrella
Method in brief: as §4

[19] = system: barnyardgrass (Echinochloa crus-galli); assay: Test B flooded paddy; conditions: Echinochloa crus-galli, 336 h; 250 g ai/ha, Flood, 13 to 15 days, scale 0 (no effect) to 100 (complete control); read-out: Plant response rating, Barnyardgrass
Method in brief: as §4

[20] = system: ducksalad (Heteranthera limosa); assay: Test B flooded paddy; conditions: Heteranthera limosa, 336 h; 250 g ai/ha, Flood, 13 to 15 days, scale 0 (no effect) to 100 (complete control); read-out: Plant response rating, Ducksalad
Method in brief: as §4

N#Cc1cccc(Oc2ncc(Cl)cn2)c1Oc1ncc(Br)cn1 [Compound 4, 2-[(5-bromo-2-pyrimidinyl)oxy]-3-[(5-chloro-2-pyrimidinyl)oxy]benzonitrile]
10%: pest or weed control at 62 g/ha (wild oat (Avena fatua); 62 g ai/ha) | pest or weed control at 125 g/ha (wild oat (Avena fatua); 125 g ai/ha)
100%: pest or weed control at 125 g/ha (kochia (Kochia scoparia) [2]; 125 g ai/ha) | pest or weed control at 500 g/ha ([3]; 500 g ai/ha) | pest or weed control at 500 g/ha ([4]; 500 g ai/ha) | pest or weed control at 125 g/ha ([5]; 125 g ai/ha) | pest or weed control at 500 g/ha ([5]; 500 g ai/ha) | pest or weed control at 500 g/ha (kochia (Kochia scoparia) [6]; 500 g ai/ha) | pest or weed control at 125 g/ha ([7]; 125 g ai/ha) | pest or weed control at 500 g/ha ([7]; 500 g ai/ha) | pest or weed control at 500 g/ha ([8]; 500 g ai/ha) | pest or weed control at 125 g/ha ([9]; 125 g ai/ha) | pest or weed control at 500 g/ha ([9]; 500 g ai/ha) | pest or weed control at 125 g/ha ([10]; 125 g ai/ha) | pest or weed control at 500 g/ha ([10]; 500 g ai/ha) | pest or weed control at 125 g/ha ([11]; 125 g ai/ha) | pest or weed control at 500 g/ha ([11]; 500 g ai/ha) | Corn plant response rating (crop injury, 0 = no effect, 100 = complete kill) at 500 g/ha (corn (Zea mays); 500 g ai/ha) | pest or weed control at 125 g/ha ([12]; 125 g ai/ha) | pest or weed control at 500 g/ha ([12]; 500 g ai/ha) | pest or weed control at 125 g/ha ([13]; 125 g ai/ha) | pest or weed control at 500 g/ha ([13]; 500 g ai/ha) | pest or weed control at 125 g/ha (kochia (Kochia scoparia) [14]; 125 g ai/ha) | pest or weed control at 500 g/ha (kochia (Kochia scoparia) [14]; 500 g ai/ha) | plant injury at 500 g/ha ([15]; 500 g ai/ha) | pest or weed control at 125 g/ha ([16]; 125 g ai/ha) | pest or weed control at 500 g/ha ([16]; 500 g ai/ha) | pest or weed control at 125 g/ha ([17]; 125 g ai/ha) | pest or weed control at 500 g/ha ([17]; 500 g ai/ha)
0%: plant injury at 250 g/ha (rice (Oryza sativa)) | pest or weed control at 250 g/ha [19]
60%: pest or weed control at 16 g/ha (kochia (Kochia scoparia) [2]; 16 g ai/ha) | pest or weed control at 31 g/ha (kochia (Kochia scoparia) [2]; 31 g ai/ha)
70%: pest or weed control at 125 g/ha ([1]; 125 g ai/ha) | pest or weed control at 125 g/ha ([8]; 125 g ai/ha)
5%: pest or weed control at 31 g/ha (wild oat (Avena fatua); 31 g ai/ha)
50%: plant injury at 125 g/ha ([15]; 125 g ai/ha)
55%: pest or weed control at 31 g/ha ([1]; 31 g ai/ha)
95%: pest or weed control at 250 g/ha [20]
20%: pest or weed control at 125 g/ha ([4]; 125 g ai/ha)
75%: pest or weed control at 62 g/ha ([1]; 62 g ai/ha)
90%: pest or weed control at 125 g/ha (kochia (Kochia scoparia) [6]; 125 g ai/ha)
80%: pest or weed control at 62 g/ha (kochia (Kochia scoparia) [2]; 62 g ai/ha) | pest or weed control at 125 g/ha ([3]; 125 g ai/ha) | Corn plant response rating (crop injury, 0 = no effect, 100 = complete kill) at 125 g/ha (corn (Zea mays); 125 g ai/ha) | pest or weed control at 250 g/ha [18]
